Values quoted from earlier work, collected in patent publication US6383817B2, “Cadmium is a risk factor for human pancreatic cancer” (Wake Forest University, priority 1999, dated 2002).
Read-outs that look alike come from different tables or passages of the source.

Assays:
Wistar rats = conditions: injection, vs. 2.2% control
mice = conditions: injection of 4 mg/kg, relative to saline
[1] = not given; remark: listed apart in the source
rats = conditions: repeated injections to rats
[2] = tested on: pancreatic metallothionein; conditions: rats
[3] = tested on: Louisiana red swamp crayfish (Procambarus clarkii); conditions: day 14; crayfish fed plants grown for 7 days in 0.00224 ppb cadmium

Row | Structure (SMILES) | incidence of pancreatic islet cell tumors (Wistar rats) [%] | increase in the incorporation of [3H] thymidine in the pancreas (mice) [fold] | SMR (x100), pancreatic cancer deaths (Elinder et al. (1985), male cadmium-nickel battery workers, Oskarshamn, Sweden) | SMR (x100), pancreatic cancer deaths (Järup et al. (1998), battery workers, Kalmar, Sweden, females) | SMR (x100), pancreatic cancer deaths (Järup et al. (1998), battery workers, Kalmar, Sweden, males) | SMR (x100), pancreatic cancer deaths (Sorahan et al. (1995), male copper cadmium alloy workers, England and Wales) | correlation (r) between estimated dietary intake of cadmium and pancreatic cancer mortality ([1]; men) | correlation (r) between estimated dietary intake of cadmium and pancreatic cancer mortality ([1]; women) | rats with hepatocytic foci in the pancreata (rats) | increase in pancreatic metallothionein ([2]; injection of 4 mg/kg) [fold] | increase in pancreatic metallothionein ([2]; injection of 8 mg/kg) [fold] | Accumulation of cadmium in hepatopancreata [3]
1 | [Cl][Cd][Cl] [cadmium chloride] | 8.5 | 2.5 | – | – | – | – | – | – | – | – | – | –
2 | [Cd] [cadmium] | – | – | 130 | 220 | 148 | 218 | 0.48 | 0.25 | more than 93% | 9.8 | 17.9 | 4,657.6 ppb
